Assay results reported in patent publication US11771685B2, “Compounds for the treatment of neurological or mitochondrial diseases” (MUSC FOUNDATION FOR RESEARCH DEVELOPMENT, priority 2018, dated 2023).
Where two headings read alike, the source gives them in different places.

What was measured:
[1] = Clinical observations in dosed mice; assay type: in vivo
Procedure: (§1) PK studies on 3 and 25 were carried out in CD-1 mice. Three males were dosed via oral gavage needle for oral administration at 20 mg/kg (10 mL/kg) or via intravenous administration at 5 mg/kg (10 mL/kg). Blood samples were taken at time intervals between 5 min and 24 hr from each animal.
PO PK experiments were repeated for 25, with oral dosing at 20 mg/kg and 10 mL/kg of a suspension with 1% Tween 80:1% carboxymethylcellulose in water.
Table 2 provides a summary of efficacy studies in vivo in mice, and in rat brain slices, using the 5% DMSO:95% Neobee formulation.

[2] = tested on: PTZ-induced seizure activity in zebrafish larvae; experiment: Zebrafish PTZ-induced seizure model; assay type: in vivo
Procedure: The zebrafish PTZ-induced seizure model was used to determine the most promising compounds' in vivo efficacy. Zebrafish larvae (7 dpf) were treated with the compound for 1 hr prior to inducing seizures with PTZ. As established by previous larval zebrafish anti-seizure studies (Rahn et al., 2014; Hansen et al., 2004; Baraban et al., 2005), total distance traveled by each fish after seizure induction was measured and used as a proxy for seizure activity. Following collection of locomotor data, observation of a startle response and visual inspection for abnormal morphology confirmed that alterations in swim activity were not caused by compound toxicity.
We induced seizures in 7 dpf zebrafish larvae by the addition of […] PTZ as originally developed by Baraban et al., 2005. In a 48-well plate, one 7-dpf zebrafish was added per well. Larvae were dosed with each compound at a sub-lethal dose 1 hr prior to PTZ treatment. Two control rows were included with each experiment—tank water only control and PTZ only. Seizures were induced by adding PTZ to wells to yield a final concentration of 10 mM. After 5 min, the plate was transferred to the Daniovision instrument (Noldus Information Technology) and the chamber light was turned on. After 2 min, MediaRecorder (Noldus) was used to record video for 15 min. A small number of videos were acquired at 25 frames per second, but the majority of data were acquired at 60 frames per second. […] Ethovision XT software (Noldus) was used to track the fish movement from the video images in order to calculate the total distance traveled over 15 min. All experimental comparisons were made between animals from the same clutch.
Statistical analyses were performed with GraphPad Prism 6 software. For the in vitro HT22 oxytosis assay, dose-response data were fit using GraphPad Prism's log(inhibitor) vs normalized response-variable slope parameters to determine EC50 values and 95% confidence intervals. For the zebrafish locomotive anti-seizure activity data, multiple comparisons were made using a one-way analysis of variance (ANOVA) with a Kruskal-Wallis Test, followed by the Dunn's Method to determine significant differences between all pairs or between control and experimental groups using the Dunn Method for Joint Ranking. Differences were considered statistically significant when p<0.05. Data from zebrafish experiments are represented as scatter dot plots of individual measurements, with means±standard deviation indicated by bars.

[3] = In vivo pharmacokinetics in CD-1 mice; set-up: species or system mouse; conditions: for Vd: read-out: Vss; for Cmax: read-out: Cmax
Procedure: as §1
The PK studies of 1 were performed by WuXi AppTec and PK studies of 3 and 25 were performed by Touchstone Biosciences (Peng et al., 2006b; Peng et al., 2001; Peng et al., 2006a; Peng et al., 2009). Male CD-1 mice were fed a standard laboratory rodent diet and housed in individual cages on a 12 hr light and 12 hr dark cycle with room temperature maintained at 22±3° C. and relative humidity at 50±20%. Animals were typically fasted overnight before dosing, with food returned after the 6 hr blood samples were obtained. Water was provided ad libitum throughout the study. The dosing solution of each test compound was prepared in a desired oral or intravenous formulation. Three to four animals were dosed via gavage needle for oral administration at 10-20 mg/kg (10-20 mL/kg) or via tail vein injection for IV administration at 2-5 mg/kg (2-5 mL/kg). […] Fluid replacement (1.5 mL of 0.9% NaCl injection, USP) was administered subcutaneously once after the 2 hr blood sampling. Blood samples were collected in BD Microtainer tubes coated with anticoagulant, placed on ice, and within 30 min, centrifuged at 15,000 g for 5 min to obtain plasma samples. All plasma samples were stored at −70° C. until analysis.
Plasma samples were prepared as follows. Three volumes of acetonitrile containing internal standard was added to one volume of plasma to precipitate proteins. Samples were centrifuged (3000 g for 10 min) and supernatant removed for analysis by LC-MS/MS. Calibration standards and quality controls were made by preparation of a 1 mg/mL stock solution and subsequently a series of working solutions in methanol:water (1:1, v/v) which were spiked into blank plasma to yield a series of calibration standard samples in the range of 1.0 ng/mL to 10 μg/mL and quality control samples at three concentration levels (low, middle and high). All incurred PK/PD plasma samples were treated identically to the calibration standards and quality control samples. LC-MS-MS analysis was performed utilizing multiple reaction monitoring for detection of characteristic ions for each drug candidate, additional related analytes and internal standard.
Plasma concentrations were measured as described above to determine a concentration vs. time profile. The area under the plasma concentration vs time curve (AUC) was calculated using the linear trapezoidal method. Fitting of the data to obtain pharmacokinetic parameters was carried out using non-compartmental analysis. Key PK parameters reported following intravenous administration are as follows: terminal half-life t1/2, initial plasma concentration C0, area under the plasma concentration vs. time curve AUC, volume of distribution at steady-state Vss, total plasma clearance CLp, and mean residence time MRT. Key PK parameters reported following extravascular administration are as follows: terminal half-life t1/2, maximum plasma concentration Cmax, time to reach maximum plasma concentration tmax, area under the plasma concentration vs. time curve AUC, mean residence time MRT, and bioavailability F. All parameters are expressed for individual animals as well as mean, standard deviation, and coefficient of variation.

[4] = male, CD-1, mouse, plasma, ip, 20 mg/kg, intraperitoneal 20 mg/kg, 5% DMSO: 95% neobee
[5] = male, CD-1, mouse, plasma, iv, 5 mg/kg, intravenous 5 mg/kg, 20% DMA: 40% PEG300: 40% H2O
[6] = male, CD-1, mouse, plasma, iv, 5 mg/kg, 3 and 25 at 5 mg/kg
[7] = male, CD-1, mouse, plasma, po, 20 mg/kg, oral 20 mg/kg, 5% DMSO: 95% Neobee
[8] = male, CD-1, mouse, plasma, po, 20 mg/kg, oral 20 mg/kg, 20% DMA-40% PEG300-40% H2O
[9] = oral 20 mg/kg, 5% DMSO: 95% Neobee
[10] = oral 20 mg/kg, 20% DMA-40% PEG300-40% H2O

CCC#CCNC1=CC(=O)c2ccccc2C1=O [Compound 3, 2-(Pent-2-yn-1-ylamino)naphthalene-1,4-dione]
pigmented urine ([1]; efficacy studies, 5% DMSO:95% Neobee formulation): showed pigmented urine
clinical symptoms during the IV study ([1]; intravenous 5 mg/kg, CD-1 mice): no abnormal clinical symptoms
anti-seizure activity ([2]; 7 dpf larvae, PTZ): decrease seizures in a zebrafish model of epilepsy in a dose-dependent manner
minimal effective concentration ([2]; Danio rerio, 7 dpf larvae, 1 hr pre-treatment, 10 mM PTZ, read-out: Anti-seizure activity: lowest tested dose with significant difference vs PTZ-only group): ≤ 5 µM
inhibition in vivo at 5 µM ([2]; Danio rerio, 5 μM, read-out: reduction of PTZ-induced locomotor activity): 62%
inhibition in vivo at 10 µM ([2]; Danio rerio, 10 μM, read-out: reduction of PTZ-induced locomotor activity): 80%
inhibition in vivo at 20 µM ([2]; Danio rerio, 20 μM, read-out: reduction of PTZ-induced locomotor activity): 91%
tlast ([3]; intraperitoneal 20 mg/kg, 5% DMSO: 95% neobee): 24 h
Clast ([3]; intravenous 5 mg/kg, 20% DMA: 40% PEG300: 40% H2O): 1.37 ng/mL
AUCinf/D ([3]; intravenous, 5 mg/kg): 89.6 h·(ng/mL)/(mg/kg)
tlast ([3]; intravenous, 5 mg/kg): 24 h
t1/2 ([3]; intravenous, 3 and 25 at 5 mg/kg, 5 mg/kg): ~15 h
Kp ([3]; male, CD-1, mouse, brain/plasma, listed under intravenous 5 mg/kg, read-out: Brain Plasma Ratio): 0.373
AUC(0-t) [3, 4]: 463 ng·h/mL
half-life [3, 4]: 7.25 h
AUC(0-inf) [3, 5]: 448 ng·h/mL
AUC(0-t) [3, 5]: 421 ng·h/mL
MRT inf [3, 5]: 4.28 h
half-life [3, 5]: 14.7 h
clearance ([3]; male, CD-1, mouse, plasma, iv, 5 mg/kg, intravenous 5 mg/kg, 20% DMA: 40% PEG300: 40% H2O, read-out: CLp): 188 mL/min/kg
Vd [3, 5]: 48.6 L/kg
clearance ([3]; male, CD-1, mouse, plasma, iv, 5 mg/kg, intravenous, 3 and 25 at 5 mg/kg, read-out: CL): 188 mL/min/kg
Vd ([3]; male, CD-1, mouse, plasma, iv, 5 mg/kg, intravenous, 3 and 25 at 5 mg/kg): 48.6 L/kg
AUC(0-inf) [3, 6]: 448 ng·h/mL
AUC(0-t) [3, 6]: 421 ng·h/mL
MRT inf [3, 6]: 4.28 h
half-life [3, 6]: 14.7 h
AUC(0-inf) [3, 7]: 688 ng·h/mL
AUC(0-t) [3, 7]: 682 ng·h/mL
MRT inf [3, 7]: 5.71 h
Tmax [3, 7]: 4 h
half-life [3, 7]: 3.34 h
Cmax [3, 7]: 90.2 ng/mL
AUC(0-inf) [3, 8]: 992 ng·h/mL
AUC(0-t) [3, 8]: 738 ng·h/mL
MRT inf [3, 8]: 5.82 h
Tmax [3, 8]: 0.139 h
half-life [3, 8]: 5.27 h
Cmax [3, 8]: 394 ng/mL
concentration at 24 hr ([3]; male, CD-1, mouse, plasma, intraperitoneal 20 mg/kg, 5% DMSO: 95% neobee, read-out: Clast): 1.47 ng/mL
concentration at 24 hr ([3]; male, CD-1, mouse, plasma, intravenous, 5 mg/kg, read-out: Clast): 1.37 ng/mL
C0 ([3]; male, CD-1, mouse, plasma, intravenous, 3 and 25 at 5 mg/kg): 1520 ng/mL
concentration at 24 hr ([3]; male, CD-1, mouse, plasma, oral 20 mg/kg, 5% DMSO: 95% Neobee, read-out: Clast): 1.21 ng/mL
concentration at 8 hr ([3]; male, CD-1, mouse, plasma, oral 20 mg/kg, 20% DMA-40% PEG300-40% H2O, 8 hr post-dose, read-out: Clast): 33.1 ng/mL
F [3, 9]: 38.4%
tlast [3, 9]: 24 h
AUCinf/D [3, 10]: 49.6 h·(ng/mL)/(mg/kg)
Cmax/D [3, 10]: 19.8 (ng/mL)/(mg/kg)
F [3, 10]: 55.3%
tlast [3, 10]: 8 h
